Molecules are shown by their SMILES. “And” between values parts separate entries of the source, which are not always exact repeats. Equal entries are not always repeated.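 Grown in 96-well plates, cells were treated for 48 hours with each compound at five concentrations. Insufficient inhibition: endpoint recorded as highest concentration tested. Here, GI50 denotes the concentration required for 50% inhibition of growth. TGI: total growth inhibition.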

Among the test systems are CCRF-CEM leukemia; ACHN renal; MCF7 breast; PC-3 prostate; HT29 colon; IGROV1 ovarian; SK-MEL-5 melanoma; NCI/ADR-RES ovarian; HS 578T breast; CAKI-1 renal.
What all share (assay): growth of human tumour cells (NCI), 48 h

Turning to `CCOC(=O)C(Cc1c[nH]c2ccc(N)cc12)(NC(C)=O)C(=O)OCC`, the GI50 in the assay on CCRF-CEM leukemia was 656 µM; with ACHN renal, over 1000 µM; with MCF7 breast, over 1000 µM; in the assay on PC-3 prostate, over 1000 µM; with HT29 colon it was over 1000 µM; in the assay on IGROV1 ovarian, over 1000 µM. Further, the GI50 with SK-MEL-5 melanoma, with NCI/ADR-RES ovarian and in the assay on HS 578T breast was over 1000 µM in each case. Besides, the TGI in the assay on CCRF-CEM leukemia, in the assay on ACHN renal, in the assay on MCF7 breast, with PC-3 prostate, in the assay with HT29 colon and in the assay with IGROV1 ovarian was over 1000 µM throughout. For the same compound, the TGI in the assay on SK-MEL-5 melanoma, in the assay with NCI/ADR-RES ovarian and with HS 578T breast was over 1000 µM throughout.

Take `CC(=O)N[C@H]1C=C[C@@H]2/C=C(C)/C=C/[C@@H](C)[C@H]([C@H](C)[C@H](O)[C@@H](C)NC(C)=O)OC(=O)/C=C/C=C(C)\C=C\[C@]2(C)C1`: the GI50 was 6.32 µM in the assay with CCRF-CEM leukemia; 0.0186 µM and 0.0045 µM in the assay on ACHN renal; 0.0336 µM and 0.0045 µM in the assay with MCF7 breast; 0.0202 µM and 0.0045 µM in the assay on PC-3 prostate; 0.00384 µM and 0.0045 µM in the assay with HT29 colon; 0.0215 µM and 0.00532 µM in the assay with IGROV1 ovarian. For the same compound, the GI50 is 0.00896 µM and 0.0045 µM in the assay on SK-MEL-5 melanoma; 0.213 µM and 0.0397 µM in the assay on NCI/ADR-RES ovarian; 0.0161 µM and 0.0045 µM in the assay with HS 578T breast. In addition, the TGI was over 45 µM with CCRF-CEM leukemia; 4.65 µM and > 45 µM in the assay on ACHN renal; 4.65 µM and > 45 µM in the assay on MCF7 breast; 4.65 µM and > 45 µM with PC-3 prostate; 4.65 µM and > 45 µM in the assay with HT29 colon; 4.65 µM and > 45 µM in the assay with IGROV1 ovarian. The TGI in the assay with SK-MEL-5 melanoma was 0.0458 µM and 0.00824 µM; with NCI/ADR-RES ovarian it was 4.65 µM and > 45 µM; in the assay with HS 578T breast it was 4.65 µM and 3.28 µM.

Take `CC(C)(C#N)c1cc(Cn2cncn2)cc(C(C)(C)C#N)c1`: the GI50 was 393 µM with CCRF-CEM leukemia; 2240 µM in the assay with MCF7 breast; 792 µM with PC-3 prostate; 3050 µM in the assay with HT29 colon; 1760 µM in the assay on IGROV1 ovarian; over 10000 µM with CAKI-1 renal. Moreover, the GI50 is 106 µM in the assay with SK-MEL-5 melanoma, 477 µM in the assay on NCI/ADR-RES ovarian and 289 µM in the assay on HS 578T breast. The TGI in the assay on CCRF-CEM leukemia is 2480 µM; in the assay on MCF7 breast it was over 10000 µM; in the assay with PC-3 prostate it was over 10000 µM; in the assay on HT29 colon it was over 10000 µM; in the assay on IGROV1 ovarian, over 10000 µM; in the assay with CAKI-1 renal, over 10000 µM. For the same compound, the TGI in the assay with SK-MEL-5 melanoma, in the assay on NCI/ADR-RES ovarian and with HS 578T breast was over 10000 µM each time.

For `O=C(/C=C/c1ccc(F)cc1)c1ccc(Cl)cc1Cl`, the GI50 in the assay on CCRF-CEM leukemia was 22.1 µM; in the assay on ACHN renal, over 100 µM; with MCF7 breast, 20.6 µM; with PC-3 prostate it was 31.3 µM; in the assay on IGROV1 ovarian it was over 100 µM; in the assay with CAKI-1 renal it was 33 µM. Further, the figures for the GI50 with SK-MEL-5 melanoma, with NCI/ADR-RES ovarian and in the assay with HS 578T breast were 50.8 µM, 38.4 µM and 54.3 µM, respectively. For the same compound, the TGI with CCRF-CEM leukemia is 52.8 µM; with ACHN renal, over 100 µM; in the assay with MCF7 breast, 62.5 µM; with PC-3 prostate it was 96.8 µM; with IGROV1 ovarian, over 100 µM; with CAKI-1 renal, 89.6 µM. Further, the TGI in the assay on SK-MEL-5 melanoma, in the assay with NCI/ADR-RES ovarian and with HS 578T breast was over 100 µM in each case.

`Nc1c(C(=O)c2ccc(Cl)cc2)sc(Nc2ccccc2)c1-c1nc2ccccc2s1`: the GI50 in the assay on CCRF-CEM leukemia is 13.9 µM; with ACHN renal it was 1.61 µM; with MCF7 breast, 1.65 µM; in the assay with PC-3 prostate, 2.35 µM; in the assay with IGROV1 ovarian, 1.42 µM; with SK-MEL-5 melanoma, 16.6 µM. Moreover, the GI50 with NCI/ADR-RES ovarian was 3.34 µM; in the assay with HS 578T breast, 2.56 µM. In addition, the TGI in the assay on CCRF-CEM leukemia, with ACHN renal, in the assay on MCF7 breast, in the assay on PC-3 prostate, in the assay with IGROV1 ovarian and with SK-MEL-5 melanoma was over 100 µM throughout. The TGI in the assay with NCI/ADR-RES ovarian is over 100 µM; in the assay on HS 578T breast, 26.9 µM.

For `CC(=O)Nc1ccc(C(=O)NN2C(=O)C(Cl)C2c2ccc(Cl)cc2)cc1` (stereo not given), the TGI with CCRF-CEM leukemia, in the assay with ACHN renal, with MCF7 breast, in the assay on PC-3 prostate, in the assay on HT29 colon and in the assay with IGROV1 ovarian was over 100 µM each time. In addition, the figures for the TGI in the assay on SK-MEL-5 melanoma, in the assay with NCI/ADR-RES ovarian and in the assay with HS 578T breast were over 100 µM, over 100 µM and 41.6 µM, respectively.

Take `CC(C)=CCCC(C)c1ccc(C)c2c1OCN(CC1CCNCC1)C2` (stereo not given): the GI50 is 15.3 µM in the assay on ACHN renal; 6.15 µM in the assay on MCF7 breast; 16.5 µM in the assay on PC-3 prostate; 3 µM with HT29 colon; 16.6 µM in the assay with IGROV1 ovarian; 17.7 µM in the assay with CAKI-1 renal. Also, the GI50 was 4.97 µM in the assay with SK-MEL-5 melanoma, 16.8 µM in the assay with NCI/ADR-RES ovarian and 13.3 µM in the assay on HS 578T breast. In addition, the TGI was determined as 30 µM in the assay with ACHN renal; 18.7 µM in the assay on MCF7 breast; 42.1 µM with PC-3 prostate; 8.38 µM in the assay on HT29 colon; 32.2 µM in the assay on IGROV1 ovarian; 36.8 µM in the assay with CAKI-1 renal. The TGI in the assay on SK-MEL-5 melanoma came to 18.3 µM; in the assay on NCI/ADR-RES ovarian, 34.8 µM; in the assay on HS 578T breast, 29.9 µM.

Values taken from PubChem BioAssay (NCI).
